Laboratory results: US6013242A, “Tropane derivatives with selective binding to the serotonin reuptake transporters for treatment of mental illness and as intermediates in the formation of imaging diagnostic agents for depression” (Wake Forest University, priority 1998, dated 2000)
Read-outs that look alike come from different tables or passages of the source.

Assays:
[1] = target: T1, serotonin (5-HT) transporter (Rattus norvegicus, UniProt P31652); settings: earlier tropanes (U.S. Ser. No. 08/589,820), 5-HT vs dopamine transporter; cited from earlier work
T1 construct: from tissue; host or cells: rat frontal cortex
T1 sequence (P31652 whole entry): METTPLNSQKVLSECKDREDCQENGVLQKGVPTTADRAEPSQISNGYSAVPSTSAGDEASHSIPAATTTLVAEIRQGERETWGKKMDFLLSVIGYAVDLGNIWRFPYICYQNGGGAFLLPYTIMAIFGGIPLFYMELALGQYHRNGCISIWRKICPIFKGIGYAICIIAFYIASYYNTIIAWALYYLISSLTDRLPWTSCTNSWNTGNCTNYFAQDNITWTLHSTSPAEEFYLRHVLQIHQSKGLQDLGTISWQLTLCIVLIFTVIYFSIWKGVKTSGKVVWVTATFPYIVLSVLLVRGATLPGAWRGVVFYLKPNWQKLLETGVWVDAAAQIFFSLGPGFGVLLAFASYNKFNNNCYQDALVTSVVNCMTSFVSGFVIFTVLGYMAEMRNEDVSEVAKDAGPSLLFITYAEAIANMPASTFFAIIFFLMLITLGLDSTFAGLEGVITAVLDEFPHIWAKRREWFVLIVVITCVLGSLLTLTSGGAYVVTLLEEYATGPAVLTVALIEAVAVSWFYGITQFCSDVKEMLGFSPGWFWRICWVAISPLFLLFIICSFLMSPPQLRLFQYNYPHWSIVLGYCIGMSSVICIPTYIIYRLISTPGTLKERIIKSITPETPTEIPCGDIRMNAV

[2] = target: T2, norepinephrine (NE) transporter (Rattus norvegicus, UniProt Q63380); test: displacement of [3H]nisoxetine binding to NE transporter; settings: rat brain membranes
T2 construct: rat brain membranes; from tissue
T2 sequence (Q63380 1-617): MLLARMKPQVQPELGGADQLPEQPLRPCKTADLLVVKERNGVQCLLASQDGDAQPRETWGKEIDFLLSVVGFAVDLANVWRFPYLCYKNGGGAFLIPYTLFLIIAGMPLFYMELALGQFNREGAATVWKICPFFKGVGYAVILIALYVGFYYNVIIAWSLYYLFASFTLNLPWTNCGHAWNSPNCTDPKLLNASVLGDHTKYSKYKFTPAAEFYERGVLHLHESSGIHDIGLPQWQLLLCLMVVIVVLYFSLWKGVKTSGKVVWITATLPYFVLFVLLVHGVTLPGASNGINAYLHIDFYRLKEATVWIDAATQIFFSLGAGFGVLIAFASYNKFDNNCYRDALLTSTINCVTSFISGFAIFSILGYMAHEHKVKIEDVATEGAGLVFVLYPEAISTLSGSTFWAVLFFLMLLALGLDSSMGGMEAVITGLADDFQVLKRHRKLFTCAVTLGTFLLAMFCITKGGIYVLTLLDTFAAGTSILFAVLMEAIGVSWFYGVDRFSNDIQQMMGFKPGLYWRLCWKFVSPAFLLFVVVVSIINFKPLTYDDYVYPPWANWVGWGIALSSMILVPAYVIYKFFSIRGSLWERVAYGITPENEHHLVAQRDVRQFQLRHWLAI

[3] = target: T3, dopamine (DA) transporter (Rattus norvegicus, UniProt P23977); test: displacement of [125I]RTI-55 binding to dopamine transporter; settings: [125I]RTI-55, rat striatal membranes
T3 construct: was used to label dopamine transporters in rat striatal membranes; from tissue; host or cells: rat striatum (membranes)
T3 sequence (P23977 whole entry): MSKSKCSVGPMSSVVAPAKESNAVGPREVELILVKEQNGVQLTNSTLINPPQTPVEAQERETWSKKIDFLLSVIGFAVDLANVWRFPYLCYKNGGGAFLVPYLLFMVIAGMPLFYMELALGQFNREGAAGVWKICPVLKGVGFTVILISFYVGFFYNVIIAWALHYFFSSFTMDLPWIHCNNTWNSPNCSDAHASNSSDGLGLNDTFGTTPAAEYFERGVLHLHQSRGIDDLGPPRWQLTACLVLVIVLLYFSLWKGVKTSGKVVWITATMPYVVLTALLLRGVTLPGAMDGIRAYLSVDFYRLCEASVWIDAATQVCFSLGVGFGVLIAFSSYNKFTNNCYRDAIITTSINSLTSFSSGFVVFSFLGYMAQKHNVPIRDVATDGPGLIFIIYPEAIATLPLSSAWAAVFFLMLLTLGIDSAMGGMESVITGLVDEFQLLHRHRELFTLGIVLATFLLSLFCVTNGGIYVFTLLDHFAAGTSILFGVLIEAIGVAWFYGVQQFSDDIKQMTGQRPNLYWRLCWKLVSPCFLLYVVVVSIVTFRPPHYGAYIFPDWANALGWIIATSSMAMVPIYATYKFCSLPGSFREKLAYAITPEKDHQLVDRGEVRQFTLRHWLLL

[4] = target: T1, serotonin (5-HT) transporter; test: displacement of [3H]paroxetine binding to 5-HT transporter; settings: for 5-HT/DA potency ratio: selectivity for 5-HT over DA transporter; for 5-HT/NE potency ratio: selectivity for 5-HT over NE transporter
[5] = [3H]paroxetine, rat frontal cortex

Compound	transporter selectivity (in words) [1]	Ki [2] [nM]	IC50 [3] [nM]	Ki [4] [nM]	5-HT/DA potency ratio [4]	5-HT/NE potency ratio [4]	Ki [4, 5] [nM]
CCC(=O)C1C(c2ccc3ccccc3c2)CC2CCC1N2C (stereo not shown) [2-naphthyl derivative]	unselective	–	–	–	–	–	–
C=C(CC)c1ccc([C@H]2C[C@@H]3CC[C@H]([C@H]2C(=O)CC)N3C)cc1 [Example 7, (R)-8-Methyl-2β-propanoyl-3β-[4-(1-ethylethenyl)phenyl]-8-azabicyclo[3.2.1]octanem]	–	1140 ± 606	22.1 ± 7.76	1.13 ± 0.3	20	1000	–
C=C(CC)c1ccc(C2CC3CCC(N3)C2C(=O)CC)cc1 [Example 8, (R)-2. beta.-Propanoyl-3β-[4-(1-ethylethenyl)phenyl]-8-azabicyclo[3.2.1]octane]	–	347 ± 54.8	37.9 ± 12.9	0.194 ± 0.1	200	1790	–
CCC(=O)[C@H]1[C@@H](c2ccc(-c3cccn3C)cc2)C[C@@H]2CC[C@H]1N2C (relative stereo) [Example 3, 8-Methyl-2β-propanoyl-3β-[4-(N-methyl-2-pyrrolyl)phenyl]-8-azabicyclo[3,2,1]octane]	–	> 10000	703 ± 222	–	24	> 15,000	25.6 ± 4.1
CCC(=O)[C@H]1[C@@H](c2ccc(/C=C/I)cc2)C[C@@H]2CC[C@H]1N2 (relative stereo) [Example 11, (E)-2β-Propanoyl-3β-[4-(2-iodoethenyl)phenyl]-8-azab icyclo[3.2.1]octane]	–	49.7 ± 10.6	51.3 ± 5.6	0.619 ± 0.078	83	80	–
CCC(=O)[C@H]1[C@@H](c2ccc(C=C(C)C)cc2)C[C@@H]2CC[C@H]1N2 (relative stereo) [Example 6, 2.beta .-Propanoyl-3β-[4-(2-methylpropenyl)phenyl]-8-azabicyclo[3.2.1]octanem]	–	1250 ± 124	96.3 ± 17.1	0.404 ± 0.1	240	3097	–
C=C(C)c1ccc([C@H]2C[C@@H]3CC[C@@H](N3)[C@H]2C(=O)CC)cc1 (relative stereo) [Example 2]	–	94 ± 18	16 ± 4.9	0.11 ± 0.02	150	850	–
CCC(=O)[C@H]1[C@@H](c2ccc(-c3cccn3C)cc2)C[C@@H]2CC[C@H]1N2 (relative stereo) [Example 4, 2.beta .-Propanoyl-3β-[4-(N-methyl-2-pyrrolyl)phenyl]-8-azabicyclo[3.2.1]octane]	–	> 10000	614 ± 98	–	590	> 25,000	1.05 ± 0.2
C=C(C)c1ccc(C2CC3CCC(N3)C2C(=O)CC)cc1 (stereo not shown) [4-(1-methylethenyl)phenyl derivative]	most selective compound described in the previous case	–	–	–	–	–	–
CCC(=O)[C@H]1[C@@H](c2ccc(/C=C(/C)I)cc2)C[C@@H]2CC[C@H]1N2 (relative stereo) [Example 13, (Z)-2β-Pr opanoyl-3β-[4-(2-iodopropenyl)phenyl]-8-azabicyclo[3.2.1]octane]	–	66.7 ± 17.1	66.5 ± 11.1	0.131 ± 0.03	507	509	–
CCC(=O)[C@H]1[C@@H](c2ccc(C=C(C)C)cc2)C[C@@H]2CC[C@H]1N2C (relative stereo) [Example 5, 8-Methyl-2β-Propanoyl-3β-[4-(2-methylpropenyl)phenyl]-8-azabicyclo[3.2.1]octane]	–	4130 ± 785	51.3 ± 15.5	–	6	448	9.22 ± 2.4
CC=Cc1ccc(C2CC3CCC(N3)C2C(=O)CC)cc1 [Example 10, (R)-(E )-2β-Propanoyl-3β-[4-(1-propenyl)phenyl]-8-azabicyclo[3.2.1]octane]	–	25.6 ± 9.6	1.94 ± 0.96	0.236	8	108	–
C=C(C)c1ccc([C@H]2C[C@@H]3CC[C@H]([C@H]2C(=O)CC)N3C)cc1 (relative stereo) [Example 1]	–	794 ± 110	7.2 ± 2.1	0.82 ± 0.38	8.8	970	–
C/C=C/c1ccc([C@H]2C[C@@H]3CC[C@H]([C@H]2C(=O)CC)N3C)cc1 [Example 9, (R)-(E )-8-Methyl-2β-propanoyl-3β-[4-(1-propenyl)phenyl]-8-azabicyclo[3.2.1]octane]	–	292 ± 71.7	1.59 ± 0.66	1.17 ± 0.46	1.5	250	–
CCC(=O)[C@H]1[C@@H](c2ccc(/C=C(\C)I)cc2)C[C@@H]2CC[C@H]1N2 (relative stereo) [Example 12, (E)-2β-Propanoyl-3. beta.-[4-(2-iodopropenyl)phenyl]-8-azabicyclo[3.2.1]octane]	–	365 ± 118	401 ± 73	0.566 ± 0.027	708	645	–
